The test system of data set [1] is YFV. The conditions noted are these: at low concentrations; cited from earlier work.
The test system of data set [2] is YFV. The note with it: cited from earlier work.
The nature of data set [3]: Cytotoxicity against Vero cells (CPE monitoring, neutral red uptake). In kind it is cell-based. The conditions noted are these: African green monkey; for CC50 at 72 h: Vero cells, neutral red uptake, three independent experiments. As to the method:
The cytotoxicity of the compounds against Vero cells was determined by monitoring the CPE. Vero cells (2.5 × 10^4/well) were plated in the wells of a 96-well plate. After 24 h, the cell monolayer was incubated with different concentrations of the test compounds for 72 h at 37 °C under a 5% CO2 atmosphere in a CO2 incubator and then monitored for CPE. The appropriate negative and positive controls were used. A neutral red uptake assay was used to assess cell viability. The half-maximal (50%) cytotoxic concentration (CC50) of each compound was determined from the dose-response curve.

Data set [4] has as its system ZIKV strain SZ01. The experiment in a line: CPE inhibition assay, anti-ZIKV activity in Vero cells. In kind it is cell-based, Zika virus. The conditions noted are these: for cell death rate compared with mock-treated ZIKV-infected cells: P < 0.05, two-tailed Student's t-test; for EC50: Zika virus, ZIKV strain SZ01, 68.6 TCID50, Vero cells, neutral red uptake, three independent experiments.

SMILES strings stand for the structures. Like-named read-outs stand apart in the source and are kept apart here. Some results are limits rather than exact numbers.

Take `NC(=O)c1nccn(C2OC(CO)C(O)C2O)c1=O` (stereo not shown) [Compound 6, 4-(3,4-dihydroxy-5-(hydroxymethyl)tetrahydrofuran-2-yl)-3-oxo-3,4-dihydropyrazine-2-carboxamide]: the “activity in cell culture” value in data set [1] is reported as “only slight activity”. For the same molecule, the “efficacy in a hamster model of YFV infection” value in data set [2] is “effective”. In data set [3], this molecule came in with a CC50 at 72 h greater than 1000 µM.

`COCCOc1cnc(O)c(C(N)=O)n1` [Compound 20, 3-hydroxy-6-(2-methoxyethoxy) pyrazine-2-carboxamide] had a CC50 at 72 h in data set [3] greater than 1000 µM. Still for that read-out and setting: as for `CCOc1cnc(O)c(C(N)=O)n1` [Compound 13, 6-ethoxy-3-hydroxypyrazine-2-carboxamide], the figure is greater than 500 µM; as for `CCCCCOc1cnc(O)c(C(N)=O)n1` [Compound 17, 3-hydroxy-6-(pentyloxy)pyrazine-2-carboxamide], 260 ± 51.1 µM; as for `NC(=O)c1nccn(CC(O)COC(c2ccccc2)(c2ccccc2)c2ccccc2)c1=O` (stereo not shown) [Compound 4, 4-(2-hydroxy-3-(trityloxy)propyl)-3-oxo-3,4-dihydropyrazine-2-carboxamide], greater than 500 µM.

In turn, `CCn1ccnc(C(N)=O)c1=O` [Compound 1, 4-ethyl-3-oxo-3,4-dihydropyrazine-2-carboxamide] returned a CC50 at 72 h in data set [3] greater than 1000 µM. In data set [3], `CCCCCCCCOc1cnc(O)c(C(N)=O)n1` [Compound 18, 3-hydroxy-6-(octyloxy)pyrazine-2-carboxamide] showed a CC50 at 72 h of 245 ± 17.8 µM. In data set [3], `NC(=O)c1nccn(COCCO)c1=O` [Compound 3, 4-((2-hydroxyethoxy)methyl)-3-oxo-3,4-dihydropyrazine-2-carboxamide] gave a CC50 at 72 h greater than 1000 µM. Same read-out and setting: as for `NC(=O)c1nc(Br)cnc1O` [Compound 11, 6-bromo-3-hydroxypyrazine-2-carboxamide], the figure is greater than 2000 µM; as for `CC(C)Oc1cnc(O)c(C(N)=O)n1` [Compound 15, 6-isopropoxypyrazine-3-hydroxy-2-carboxamide], 345 ± 48.4 µM. Take `NC(=O)c1nc(F)c[nH]c1=O` [Compound T-705, favipiravir]: in data set [4], the “cell death rate compared with mock-treated ZIKV-infected cells” value was “significantly reduced” and a half-maximal effect (EC50) was put at 111 ± 13.1 µM. In addition, in data set [3], the CC50 at 72 h is greater than 3000 µM.

`COc1cnc(O)c(C(N)=O)n1` [Compound 12, 3-hydroxy-6-methoxypyrazine-2-carboxamide]: in data set [3], the 50% cytotoxic concentration (CC50) at 72 h was greater than 1000 µM. Still for that read-out and setting: the same measure for `NC(=O)c1nc([N+](=O)[O-])cnc1O` [Compound 10, 6-nitropyrazine-3-hydroxy-2-carboxamide]: greater than 4000 µM; for `NC(=O)c1nc(F)cn(CC(O)COC(c2ccccc2)(c2ccccc2)c2ccccc2)c1=O` (stereo not shown) [Compound 8, 6-fluoro-4-(2-hydroxy-3-(trityloxy)propyl)-3-oxo-3,4-dihydropyrazine-2-carboxamide]: greater than 500 µM; for `CC(=O)OCCOCn1ccnc(C(N)=O)c1=O` [Compound 2, 2-((3-carbamoyl-2-oxopyrazin-1(2H)-yl)methoxy) ethyl acetate]: greater than 2000 µM. In data set [3], `CCCCOc1cnc(O)c(C(N)=O)n1` [Compound 16, 6-butoxy-3-hydroxypyrazine-2-carboxamide] returned a CC50 at 72 h of 310 ± 15.2 µM. Molecule `NC(=O)c1nc(F)cn(C2OC(CO)C(O)C2O)c1=O` (stereo not shown) [Compound 9, 4-(3,4-dihydroxy-5-(hydroxymethyl)tetrahydrofuran-2-yl)-6-fluoro-3-oxo-3,4-dihydropyrazine-2-carboxamide] yielded a CC50 at 72 h in data set [3] greater than 1000 µM.

As for `NC(=O)c1nccnc1O` [Compound T-1105, 3-hydroxypyrazine-2-carboxamide], in data set [4], the “cell death rate compared with mock-treated ZIKV-infected cells” value was “significantly reduced” and the EC50 was 97.5 ± 6.8 µM. Besides, the CC50 at 72 h in data set [3] was greater than 4000 µM. `NC(=O)c1nc(OCCO)cnc1O` [Compound 19, 3-hydroxy-6-(2-hydroxyethoxy) pyrazine-2-carboxamide]: the CC50 at 72 h in data set [3] was greater than 1000 µM. Still for that read-out and setting: as for `CCCOc1cnc(O)c(C(N)=O)n1` [Compound 14, 3-hydroxy-6-propoxypyrazine-2-carboxamide], the figure is greater than 500 µM.

Regarding `NC(=O)c1ncn([C@@H]2O[C@H](CO)[C@@H](O)[C@H]2O)n1` [Ribavirin], in data set [4] (Vero cells, ZIKV strain SZ01), the “effect on ZIKV-induced CPE or cell death” value is recorded as “little or no effect”. Moreover, in data set [4] (at concentrations below 400 μM), the anti-ZIKV activity result was “not active”. For the same molecule, the CC50 at 72 h in data set [3] is greater than 2000 µM. In data set [3], `CC(=O)OCCOCn1cc(F)nc(C(N)=O)c1=O` [Compound 7, 2-((3-carbamoyl-5-fluoro-2-oxopyrazin-1(2H)-yl)methoxy) ethyl acetate] returned a CC50 at 72 h greater than 1000 µM. Consider `NC(=O)c1nccn(CC(O)CO)c1=O` (stereo not shown) [Compound 5, 4-(2,3-dihydroxypropyl)-3-oxo-3,4-dihydropyrazine-2-carboxamide], for which the CC50 at 72 h in data set [3] was greater than 2000 µM. Turning to `CCCCCCCCCCCCCCCCOCCCOP(=O)(O)CO[C@H](CO)Cn1ccc(N)nc1=O` [CMX001, brincidofovir], in data set [4], the anti-ZIKV activity result was “not active” and the “effect on ZIKV-induced CPE or cell death” value was “little or no effect”. In data set [3], the CC50 came out at 11.3 ± 0.2 µM.
